Reference: paper PMC11311250 (Organic & biomolecular chemistry, 2023)
Like-named read-outs stand apart in the source and are kept apart here.

Columns and labels:
[1] = amide bond, 12-membered ring
[2] = system: P. aeruginosa K799; experiment: antibacterial microdilution growth inhibition; format: cell-based, Pseudomonas aeruginosa
[3] = amide bond; 12-membered ring; T3P/DIEA; DMF; 45.0 °C
[4] = T3P/collidine, DCE, 1.0 mM, 80.0 °C, 3 steps
[5] = T3P/DIEA, DCE, 1.0 mM, 80.0 °C, 3 steps

ALAL
ring closure, isolated yield [1, 4]: 11%

epi-pseudoxylallemycin
ring closure, isolated yield ([1]; T3P/DIEA, DCM/DMF 9:1, 45.0 °C): 26%

all-L cyclo(N-Me-Leu–Phe)2 (head to tail) [pseudoxylallemycin A]
growth inhibition [2]: failed to inhibit the growth

(3S,6S,9R,12S)-3,9-dibenzyl-1,6,7,12-tetramethyl-1,4,7,10-tetraazacyclododecane-2,5,8,11-tetraone (cyclo (L-N-Me-Ala–L-Phe–L-N-Me-Ala-D-Phe))
ring closure, isolated yield [1, 5]: 5%

pseudoxylallemycin A
ring closure, isolated yield [1, 5]: 18.1% | ring closure, isolated yield ([1]; T3P/DIEA, DMF, 1.0 mM, 45.0 °C, 3 steps): 11.7% | ring closure, isolated yield ([1]; T3P/DIEA, DMF, 1.0 mM, 80.0 °C, 3 steps): 14.7% | ring closure, isolated yield ([1]; T3P/DtBP, DCE, 1.0 mM, 80.0 °C, 3 steps): 19% | ring closure, isolated yield [1, 4]: 36% | ring closure, isolated yield ([1]; T3P/pyridine, DCE, 1.0 mM, 80.0 °C, 3 steps): 32% | ring closure, yield after HPLC [3]: 24%

epi-pseudoxylallemycin A
ring closure, isolated yield [1, 4]: 33%
